Test results as given in patent US6395728B2, “Method of treatment and pharmaceutical composition” (Novartis AG, priority 1999, dated 2002).

System: diabetic SHRs
Assay: Survival of streptozotocin-induced diabetic SHRs under drug treatment
Assay type: in vivo, rat
Conditions: week 21 of treatment
Description: Diabetes is induced in SHRs aged about 6 to 8 weeks weighing about 250 to 300 g by treatment e.g. with streptozotocin. The drugs are administered by twice daily average. Untreated diabetic SHRs are used as control group (group 1). Other groups of diabetic SHRs are treated with 30 mg/kg of valsartan (group 2), with 20 mg/kg of verapamil (group 3) and with a combination of 20 mg/kg of valsartan and 15 mg/kg of verapamil (group 4). On a regular basis, besides other parameters the survival rate after 21 weeks of treatment is being monitored.

| Compound | Survival Rate (30 mg/kg of valsartan (group 2)) | Survival Rate (20 mg/kg of verapamil (group 3)) |
| --- | --- | --- |
| CCCCC(=O)N(Cc1ccc(-c2ccccc2-c2nnn[nH]2)cc1)[C@H](C(=O)O)C(C)C [valsartan, (S)-N-(1-carboxy-2-methyl-prop-1-yl)-N-pentanoyl-N-[2′(1H-tetrazol-5-yl)biphenyl-4-yl-methyl]amine] | 45.9% |  |
| COc1ccc(CCN(C)CCCC(C#N)(c2ccc(OC)c(OC)c2)C(C)C)cc1OC (centres unmarked) [verapamil] |  | 42.9% |
